Data: patent publication US20030073654A1, “Stabilized transient gene expression” (Genespan Corporation, priority 1996, published 2003)

How the values were obtained:
SW480 cells [1] = experiment: Influence of polysaccharide size/type on transient expression (protocol of plate #6, polysaccharide substituted for chondroitin sulfate); type: cell-based, human; details: for FACTOR G / FACTOR K / FACTOR X / Total β-gal (ng) from 2 × 10^4 Cells in 14 Days: Table 13; for effectiveness in enhancing transient expression: running text of Example 10
Method: A 15 plate experiment was conducted in which the chemical compounds indicated in Table 9 were added to the culture medium of SW480 cells that were transfected in 6-well plates as detailed in Example 1. […] The chondroitin sulfate used for these experiments was as in Example 2. The most efficacious formulations, in order of their effectiveness, were those used in plates 6, 3, 13 and 14. […] The following experiments were conducted to determine the effects of polysaccharide size on their effectiveness in enhancing transient expression. […] The chondroitin sulfate used for these comparisons was obtained either from Biorelease, or was prepared by treating large (>20 kDa) chondroitin sulfate (Type A) with alkali, then acid. The size of the non-purchased preparations was determined by electrophoretic comparison with Biorelease 4 kDa chondroitin sulfate using PhastSystem gels in accord with the manufacturer's instructions (Pharmacia). The results are shown in Table 11, in which the ranges observed for X and […] in the four trials are shown in parentheses below the averages. […] Table 12 also presents the results of the Limulus amebocyte lysate (LAL) endotoxin assay, expressed as endotoxin units per ml (Eu/ml), which was performed on all media used before, during and after transfection, but before adding serum. This assay provides a quantitative measure for Gram-negative bacterial endotoxin in aqueous solutions. […] The LAL results in Table 12 are those for the post-transfection media, assayed prior to adding serum. All solutions used for these experiments were prepared in a hood using standard aseptic procedures.

SW480 cells [2] = experiment: Assay for cytotoxicity (trypan blue viability, 8 day static culture); type: cell-based, human; details: Table 13, protocol of Example 10
Method: 1. […] However, it should be understood that various types of cells vary in their sensitivity to different chemical compounds. Thus, while SW480 cells may be used as a convenient tool for determining biocompatible concentrations of the chemical compounds, it may be necessary to empirically adjust the concentrations determined with SW480 cells in order to optimize biocompatibility with other types of cells.
A number of chemical compounds were tested in 6-well plates according to the protocol described in Example 1 to determine the relationship between their cytotoxicity and their ability to promote the uptake and expression of foreign genes in SW480 cells. Unless otherwise noted, except for the control, all plates contained 4 mM L-glutamine as well as gentamicin to retard bacterial growth.
Cytotoxicity assays were performed as follows. SW480 cells (approximately 1×10^6 cells per well) were plated in 1 ml of RPMI in 6-well culture dishes at day zero in the presence of the chemical compound whose cytotoxicity was being tested. Twenty-four hours after seeding the wells, the RPMI medium was removed, and liposomes containing foreign DNA were added to the culture in 1 ml of OPTI-MEM medium, as described in Example 1. The transfection medium also contained the chemical compounds whose cytotoxicity was being tested. Control plates were included that were identical to the test plates, except that the test compounds were not present in the culture medium. Test and control cultures were grown under “static” conditions, i.e., the plates were not shaken, rotated, or otherwise agitated. Each day for a total of 8 days, the cells from one test well and one control well were harvested and viability assessed by staining with trypan blue. […] The chondroitin sulfate used here was as in Example 2.

[3] = pH of aqueous solutions of the compounds; type: physicochemical; details: stock solutions prepared in culture media diluted with deionized water
Method: The pH values shown in Table 1 were determined in aqueous solutions made by diluting stock solutions prepared in culture media with deionized water.

[4] = test system: SW480 P3 (ATCC #CCL228) human colon carcinoma cells; experiment: Screening assay for enhancement of transient expression (β-galactosidase gene, liposomal transfection, 6-well plates); type: cell-based; details: for G Factor (G14): Table 1, values without asterisk, days 4-14 after transfection; for X Factor / K Factor: Table 1; for X Factor: cumulative β-galactosidase vs control, first four days after transfection, compound at the mM given in the table; for K Factor: ratio of first order rate constants of change in expression, control vs compound
From the text: These parameters are called the “X” factor, the “G” factor, and the “K” factor. [formula]
This factor reflects the extent to which a chemical compound added to a transfected cell enhances stabilizes transient expression for the first four days following transfection. […] For example, if expression is doubled in the presence of a compound, […]. […] X may be calculated similarly when the agent in question is a mixture of more than one chemical compound.
Cumulative protein expression, i.e., the values for “A” and “C”, is measured by summing the values measured daily in aliquots of the cultured cells.
2. G factors. G factors differ from the X factor only with respect to the time period evaluated. For calculating a G factor, the amount of protein expressed is measured from days 4-7 or days 4-14, where day 0 is the day on which the foreign DNA is added to the cells. The subscripts denote which of the two time periods provided the basis for measurement. […] As for the X factor, [formula]
3. K factor. The K factor is the ratio of the rate constants for the change in the foreign DNA expression in control transfected cells and in cells exposed to a chemical compound of the subject invention. K is determined according to the following equation: [formula]
wherein “k(DNA)” is the first order rate constant for the change in concentration of the protein expressed from the transgenic DNA, which is expressing protein as a function of time, i.e., [formula]
Values for k(DNA) are derived by using a computer program that plots the log of the foreign protein concentration against time, using the results of transgenic protein measurements that begin about 24 hours after the foreign DNA has been added to the cell. […] However, the program calculates a “best fit” line for each data set, and determines the slope of that portion of the resulting line that corresponds to the period during which protein production is changing. […] Thus, the slope is calculated during this period of decline to provide values for k(DNA) and K that can be compared for the purpose of comparing the efficacy of different chemical compounds.
SW480 P3 (ATCC #CCL228) human colon carcinoma cells (typically, 1×10^6 cells) were plated in the wells of a 6-well tissue culture plate. The number of wells plated reflected the number of days post-transfection during which the experiment would proceed. Each well contained 1 ml of complete media from a 30 ml stock solution containing: 26.4 ml RPMI tissue culture medium, 4 mM L-glutamine, 3.0 ml fetal bovine serum, and 10 μg/ml gentamicin. Cells were cultured at 37° C. in a CO2 incubator with 10% CO2 for 24 hours after being plated, during which time the cells adhered to the plates.
After the 24 hour pre-incubation step, the transfection step was carried out by removing the RPMI and adding 900 μL OPTI-MEM® (Gibco) medium containing 2 μg of VR1412 DNA (Vical, Inc., San Diego, Calif.), which expresses the bacterial β-galactosidase gene under the control of a cytomegalovirus promoter, and 8 μg of a mixture of cationic lipid (1,2-dimyristyloxyproply-3-dimethyl-hydroxyethyl ammonium bromide (e.g., “DMRIE/DOPE”) mixed in equimolar proportions with dioleoylphosphatidylethanolamine) to yield a lipid:DNA molar ratio of 0.99:1. It should be noted that typical transient transfection protocols employ 10 μg DNA per 10^6 cells, but the protocol described here uses less DNA in order to reduce toxicity to the cells. The plates were then incubated for 4 hours at 37° C.
After the 4 hour incubation step, 100 μl of heat deactivated fetal bovine serum (to stop transfection), plus 12.0 μl of 50 mg/ml gentamicin were added to each well.

Molecule	pH (H20) [3]	G Factor (G14) [4]	X Factor [4]	K Factor [4]	further results
CC(=O)N[C@H]1C(O)O[C@H](CO)[C@H](OS(=O)(=O)O)[C@@H]1O[C@@H]1OC(C(=O)O)=C[C@H](O)[C@H]1O (some centres unmarked) [Chondro ΔDi-4S]					FACTOR G (SW480 cells [1]): 40.1; FACTOR K (SW480 cells [1]): 0.4; FACTOR X (SW480 cells [1]): −28.2; Total β-gal (ng) from 2 × 10^4 Cells in 14 Days (SW480 cells [1]): 184.7 ng; Cytotoxic (SW480 cells [2]): Yes; Cytotoxic (SW480 cells [2]; listed as disaccharide units derived from Type A): cytotoxic
CC(=O)N[C@H]1C(O)O[C@H](COS(=O)(=O)O)[C@H](O)[C@@H]1O[C@@H]1OC(C(=O)O)=C[C@H](O)[C@H]1O (some centres unmarked) [Chondro ΔDi-6S]					FACTOR G (SW480 cells [1]): 39.0; FACTOR K (SW480 cells [1]): 1.3; FACTOR X (SW480 cells [1]): −32.7; Total β-gal (ng) from 2 × 10^4 Cells in 14 Days (SW480 cells [1]): 932.2 ng; effectiveness in enhancing transient expression (SW480 cells [1]): better results than the controls; Cytotoxic (SW480 cells [2]): No
NC(=O)CC[C@H](N)C(=O)O [L-GLUTAMINE]	7.14	23	−13		
NCCCC[C@H](N)C(=O)O [L-LYSINE]	8.34	−10			G Factor (G7) ([4]; Table 1, days 4-7 after transfection): 9
C[C@@H](O)[C@H](N)C(=O)O [L-THREONINE]	8.14	40	28	1	
CC(C)C[C@H](N)C(=O)O [LEUCINE]	7.88	32	−13		
CSCC[C@H](N)C(=O)O [METHIONINE]	7.41	36	2	0	
O=C[C@@H](O)[C@@H](O)[C@H](O)[C@H](O)CO [Mannose]					FACTOR G (SW480 cells [1]): 23.5; FACTOR K (SW480 cells [1]): 1.0; FACTOR X (SW480 cells [1]): −23.6; Total β-gal (ng) from 2 × 10^4 Cells in 14 Days (SW480 cells [1]): 730.4 ng; effectiveness in enhancing transient expression (SW480 cells [1]): effective in enhancing transient expression; Cytotoxic (SW480 cells [2]): No
CCOC(=O)CC[C@H](NCc1ccc(N)cc1)C(=O)OCC [N-(4-AMINOBENZYL)-L-GLUTAMIC DIETHYLESTER]	6.44	8	−35		
N[C@@H](Cc1ccccc1)C(=O)O [PHENYLALANINE]	6.97	53	−12	3	
O=C([O-])c1ccccc1.[Na+] [SODIUM BENZOATE]	8.14	−6	−15	1	
N[C@@H](Cc1c[nH]c2ccccc12)C(=O)O [TRYPTOPHAN]	6.25	67	55	2	
O=C(O)CCC(=O)C(=O)O [α-KE[…]]	3.75	53	7.28		
MELANIN	3.45				effect on transient expression [4]: significantly suppress transient expression

The next lines start with results.

pH (H20) [3]	Molecule	G Factor (G14) [4]	X Factor [4]	K Factor [4]	further results
4.34	CSCC[C@H](NC=O)C(=O)O [N-FORMYL-L-METHIONINE]	63	26		
6.91	O=C(O)c1cccnc1 [NICOTINIC ACID]	87	12	1	
7.71	O=C(O)[C@@H]1CCCN1 [PROLINE]	21	−22		
6.52	NC(=O)SC[C@H](N)C(=O)O [S-CARBAMYL-L-CYSTEINE]	−74	−76		
7.4	N[C@@H](CO)C(=O)O [SERINE]	104	43	1	
7.88	NCCS(=O)(=O)O [TAURINE]	34	−20	2	
7.88	N[C@@H](Cc1ccc(O)cc1)C(=O)O [TYROSINE]	52	36	2	
8.12	CC(C)[C@H](N)C(=O)O [VALINE]	40	−18	2	
7.27	C[C@H](N)C(=O)O [α-ALANINE]	35	31		
7.58	CCC(N)C(=O)O (stereo not drawn) [α-AMINO-n-BUTYRIC ACID]	35	−.19	1	
8.38	NCCC(=O)O [β-ALANINE]	33	0.2	1	
6.81	O=S(=O)(O)CC(O)CN(CCO)CCO (centres unmarked) [′3-[BIS(2HYDROXYETHYL AMINO)]-2-HYDROXYL-′1-PROPANE SULFONIC ACID]	−10	−55		
